From ChEMBL document CHEMBL1201862, “PubChem BioAssay data set” (2004)
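Assay format: 96-well plates, 48-hour exposure. GI50 = concentration required for 50% inhibition of growth.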 The source made the active and inactive calls. Rule as the data show it: active = GI50 up to about 1.1 µM and inactive = higher.

Assays:
Test in all cases: DTP human tumour cell line panel, 48 h
RXF 393 = tested on: RXF 393
A549 = tested on: A549
SN12C = tested on: SN12C
CAKI-1 = tested on: CAKI-1
BT-549 = tested on: BT-549
HL-60 = tested on: HL-60
786-0 = tested on: 786-0
RPMI-8226 = tested on: RPMI-8226
TK-10 = tested on: TK-10
NCI-H460 = tested on: NCI-H460
MDA-N = tested on: MDA-N
SNB-75 = tested on: SNB-75
NCI-H522 = tested on: NCI-H522
NCI-H226 = tested on: NCI-H226
SK-OV-3 = tested on: SK-OV-3
Hs-578T = tested on: Hs-578T
SF-539 = tested on: SF-539
Malme-3M = tested on: Malme-3M
EKVX = tested on: EKVX
HCC 2998 = tested on: HCC 2998
NCI-H23 = tested on: NCI-H23
NCI/ADR-RES = tested on: NCI/ADR-RES
UO-31 = tested on: UO-31
SK-MEL-5 = tested on: SK-MEL-5
UACC-257 = tested on: UACC-257
SR = tested on: SR
MDA-MB-435 = tested on: MDA-MB-435
MOLT-4 = tested on: MOLT-4
SF-268 = tested on: SF-268
HOP-62 = tested on: HOP-62
HOP-92 = tested on: HOP-92
ACHN = tested on: ACHN
SK-MEL-28 = tested on: SK-MEL-28
OVCAR-5 = tested on: OVCAR-5
HCT-116 = tested on: HCT-116
OVCAR-8 = tested on: OVCAR-8
MCF7 = tested on: MCF7
A498 = tested on: A498
LOX IMVI = tested on: LOX IMVI
SNB-19 = tested on: SNB-19
SW-620 = tested on: SW-620
DU-145 = tested on: DU-145
HT-29 = tested on: HT-29
HCT-15 = tested on: HCT-15
KM12 = tested on: KM12
SF-295 = tested on: SF-295
U-251 = tested on: U-251
CCRF-CEM = tested on: CCRF-CEM
COLO 205 = tested on: COLO 205
T47D = tested on: T47D
OVCAR-3 = tested on: OVCAR-3
M14 = tested on: M14
MDA-MB-231 = tested on: MDA-MB-231
PC-3 = tested on: PC-3
UACC-62 = tested on: UACC-62
OVCAR-4 = tested on: OVCAR-4
IGROV-1 = tested on: IGROV-1
SK-MEL-2 = tested on: SK-MEL-2
K562 = tested on: K562

COc1cc(O)c2c(=O)c(OC)c(-c3ccc(OC)c(OC)c3)oc2c1.[Zn+2]
GI50 (RXF 393): 5.81 µM (inactive)
GI50 (A549): 53.2 µM (inactive)
GI50 (SN12C): 61.2 µM (inactive)
GI50 (CAKI-1): 11.2 µM (inactive)
GI50 (BT-549): 17.8 µM (inactive)
GI50 (HL-60): > 100 µM (inactive)
GI50 (786-0): 10.4 µM (inactive)
GI50 (RPMI-8226): 57.9 µM (inactive)
GI50 (TK-10): 66.1 µM (inactive)
GI50 (NCI-H460): 17.1 µM (inactive)
GI50 (MDA-N): > 100 µM (inactive)
GI50 (SNB-75): 1.75 µM (inactive)
GI50 (NCI-H522): 4.38 µM (inactive)
GI50 (NCI-H226): 54.8 µM (inactive)
GI50 (SK-OV-3): 5.12 µM (inactive)
GI50 (Hs-578T): 2.67 µM (inactive)
GI50 (SF-539): 20.8 µM (inactive)

Nc1nc(N)c2c(n1)CCC(S(=O)(=O)c1ccc3ccccc3c1)C2 (stereo unspecified)
GI50 (Malme-3M): 2.24 µM (inactive)
GI50 (EKVX): 31.8 µM (inactive)
GI50 (HCC 2998): 13.6 µM (inactive)
GI50 (NCI-H23): 2.53 µM (inactive)
GI50 (NCI/ADR-RES): 43.8 µM (inactive)
GI50 (A549): 0.54 µM (active)
GI50 (UO-31): 5.45 µM (inactive)
GI50 (SK-MEL-5): 2.55 µM (inactive)
GI50 (UACC-257): 12.5 µM (inactive)
GI50 (SR): 4.08 µM (inactive)
GI50 (MDA-MB-435): 0.714 µM (active)
GI50 (MOLT-4): 2 µM (inactive)
GI50 (SF-268): 11 µM (inactive)
GI50 (HOP-62): 9.51 µM (inactive)
GI50 (HOP-92): 9.1 µM (inactive)
GI50 (ACHN): 3.85 µM (inactive)
GI50 (SN12C): 7 µM (inactive)
GI50 (CAKI-1): 6 µM (inactive)
GI50 (SK-MEL-28): 27.7 µM (inactive)
GI50 (OVCAR-5): 87.7 µM (inactive)
GI50 (HCT-116): 11.6 µM (inactive)
GI50 (OVCAR-8): 5.26 µM (inactive)
GI50 (BT-549): 6.65 µM (inactive)
GI50 (MCF7): 10.1 µM (inactive)
GI50 (HL-60): 13.5 µM (inactive)
GI50 (A498): 24.9 µM (inactive)
GI50 (LOX IMVI): 0.706 µM (active)
GI50 (786-0): 23.1 µM (inactive)
GI50 (RPMI-8226): 12.5 µM (inactive)
GI50 (TK-10): 4.57 µM (inactive)
GI50 (SNB-19): 3.61 µM (inactive)
GI50 (NCI-H460): 0.891 µM (active)
GI50 (MDA-N): 0.766 µM (active)
GI50 (SW-620): 59.3 µM (inactive)
GI50 (DU-145): 9.59 µM (inactive)
GI50 (HT-29): 1.26 µM (inactive)
GI50 (NCI-H226): 39.3 µM (inactive)
GI50 (HCT-15): 2.38 µM
GI50 (SK-OV-3): 33.3 µM (inactive)
GI50 (KM12): 6.08 µM (inactive)
GI50 (SF-295): 1.66 µM (inactive)
GI50 (U-251): 2.45 µM (inactive)
GI50 (CCRF-CEM): 5.2 µM (inactive)
GI50 (COLO 205): 8.38 µM (inactive)
GI50 (T47D): 14.5 µM (inactive)
GI50 (SF-539): 3.8 µM (inactive)
GI50 (OVCAR-3): 10.9 µM (inactive)
GI50 (M14): 12.6 µM (inactive)
GI50 (MDA-MB-231): 42.4 µM (inactive)
GI50 (PC-3): 17.6 µM (inactive)

Oc1nncc2[nH]c(-c3ccccc3)cc12
GI50 (Malme-3M): 56.9 µM (inactive)
GI50 (EKVX): 21.9 µM (inactive)
GI50 (HCC 2998): 36 µM (inactive)
GI50 (RXF 393): 27 µM (inactive)
GI50 (NCI-H23): 48.9 µM (inactive)
GI50 (NCI/ADR-RES): 25.2 µM (inactive)
GI50 (A549): 49.3 µM (inactive)
GI50 (UO-31): 67.1 µM (inactive)
GI50 (SK-MEL-5): 23.3 µM (inactive)
GI50 (UACC-257): 30.5 µM (inactive)
GI50 (SR): 46.5 µM (inactive)
GI50 (MDA-MB-435): 28.2 µM (inactive)
GI50 (MOLT-4): 17 µM (inactive)
GI50 (SF-268): 39.4 µM (inactive)
GI50 (HOP-62): 61.5 µM (inactive)
GI50 (HOP-92): > 100 µM (inactive)
GI50 (ACHN): 46.3 µM (inactive)
GI50 (SN12C): 54.1 µM (inactive)
GI50 (CAKI-1): 45.8 µM (inactive)
GI50 (UACC-62): 33.9 µM (inactive)
GI50 (OVCAR-4): 55.1 µM (inactive)
GI50 (OVCAR-5): 95.1 µM (inactive)
GI50 (HCT-116): 57.7 µM (inactive)
GI50 (OVCAR-8): 78.7 µM (inactive)
GI50 (BT-549): 37.8 µM (inactive)
GI50 (MCF7): 24.4 µM (inactive)
GI50 (HL-60): 71.9 µM (inactive)
GI50 (IGROV-1): > 100 µM (inactive)
GI50 (LOX IMVI): 66.1 µM (inactive)
GI50 (786-0): 75 µM (inactive)
GI50 (RPMI-8226): 56.4 µM (inactive)
GI50 (TK-10): 39.4 µM (inactive)
GI50 (SK-MEL-2): 29.6 µM (inactive)
GI50 (SNB-19): > 100 µM (inactive)
GI50 (NCI-H460): 45.5 µM (inactive)
GI50 (MDA-N): 38.9 µM (inactive)
GI50 (SW-620): 64.4 µM (inactive)
GI50 (DU-145): 79.8 µM (inactive)
GI50 (HT-29): 36.4 µM (inactive)
GI50 (SNB-75): 22.9 µM (inactive)
GI50 (NCI-H226): 86.1 µM (inactive)
GI50 (HCT-15): 45.8 µM
GI50 (SK-OV-3): 63.7 µM (inactive)
GI50 (KM12): 35.1 µM (inactive)
GI50 (SF-295): 26.2 µM (inactive)
GI50 (U-251): 52 µM (inactive)
GI50 (CCRF-CEM): 36.7 µM (inactive)
GI50 (COLO 205): 43.1 µM (inactive)
GI50 (T47D): 23.7 µM (inactive)
GI50 (K562): 44.1 µM (inactive)
GI50 (OVCAR-3): 36.2 µM (inactive)
GI50 (M14): 51.8 µM (inactive)
GI50 (MDA-MB-231): 34 µM (inactive)
GI50 (PC-3): 30.1 µM (inactive)
